Test results reported in ChEMBL document CHEMBL1131751, “Design and synthesis of 2-[4-[4-(m-(ethylsulfonamido)-phenyl) piperazin-1-yl]butyl]-1,3-dioxoperhydropyrrolo[1,2-c]imidazole (EF-7412) using neural networks. A selective derivative with mixed 5-HT1A/D2 antagonist properties” (Bioorg Med Chem Lett, 1999).

Legend:
[1] = biological target: D(2) dopamine receptor (Mus musculus, UniProt P61168); experiment: Binding affinity towards Dopamine receptor D2
[2] = biological target: T1, Alpha-1 adrenergic receptor (Mus musculus, UniProt P97714+P97717+P97718); experiment: Binding affinity towards Alpha-1 adrenergic receptor; format: protein assay
T1 sequence (P97714 whole entry): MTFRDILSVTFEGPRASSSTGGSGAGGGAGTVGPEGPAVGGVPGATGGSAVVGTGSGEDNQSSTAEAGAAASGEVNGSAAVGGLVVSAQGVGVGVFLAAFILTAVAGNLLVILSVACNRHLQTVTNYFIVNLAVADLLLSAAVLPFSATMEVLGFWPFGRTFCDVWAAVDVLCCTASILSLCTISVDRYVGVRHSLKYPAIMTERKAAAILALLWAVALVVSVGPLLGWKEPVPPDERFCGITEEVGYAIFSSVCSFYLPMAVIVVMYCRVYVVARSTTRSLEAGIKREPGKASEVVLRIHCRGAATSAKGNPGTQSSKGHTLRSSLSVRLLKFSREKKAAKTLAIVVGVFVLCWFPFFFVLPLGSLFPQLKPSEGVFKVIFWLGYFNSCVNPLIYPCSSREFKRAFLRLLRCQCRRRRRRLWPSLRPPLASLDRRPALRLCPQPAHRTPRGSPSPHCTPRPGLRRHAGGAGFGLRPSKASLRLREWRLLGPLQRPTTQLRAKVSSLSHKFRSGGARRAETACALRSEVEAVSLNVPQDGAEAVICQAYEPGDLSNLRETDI
T1 sequence (P97717 whole entry): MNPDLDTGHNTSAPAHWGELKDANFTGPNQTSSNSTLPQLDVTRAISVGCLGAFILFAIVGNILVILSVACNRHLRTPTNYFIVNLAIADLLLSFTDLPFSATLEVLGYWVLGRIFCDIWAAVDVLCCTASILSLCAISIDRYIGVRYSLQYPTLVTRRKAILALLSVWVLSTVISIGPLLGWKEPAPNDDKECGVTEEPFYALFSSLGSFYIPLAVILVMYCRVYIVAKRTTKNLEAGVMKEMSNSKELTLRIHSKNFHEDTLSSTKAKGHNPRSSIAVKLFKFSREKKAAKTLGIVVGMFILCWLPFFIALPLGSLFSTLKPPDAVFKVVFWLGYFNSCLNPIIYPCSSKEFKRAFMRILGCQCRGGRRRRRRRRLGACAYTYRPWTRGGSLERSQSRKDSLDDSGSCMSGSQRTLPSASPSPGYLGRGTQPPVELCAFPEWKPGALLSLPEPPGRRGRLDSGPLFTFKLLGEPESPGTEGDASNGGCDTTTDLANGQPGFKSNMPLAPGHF
T1 sequence (P97718 whole entry): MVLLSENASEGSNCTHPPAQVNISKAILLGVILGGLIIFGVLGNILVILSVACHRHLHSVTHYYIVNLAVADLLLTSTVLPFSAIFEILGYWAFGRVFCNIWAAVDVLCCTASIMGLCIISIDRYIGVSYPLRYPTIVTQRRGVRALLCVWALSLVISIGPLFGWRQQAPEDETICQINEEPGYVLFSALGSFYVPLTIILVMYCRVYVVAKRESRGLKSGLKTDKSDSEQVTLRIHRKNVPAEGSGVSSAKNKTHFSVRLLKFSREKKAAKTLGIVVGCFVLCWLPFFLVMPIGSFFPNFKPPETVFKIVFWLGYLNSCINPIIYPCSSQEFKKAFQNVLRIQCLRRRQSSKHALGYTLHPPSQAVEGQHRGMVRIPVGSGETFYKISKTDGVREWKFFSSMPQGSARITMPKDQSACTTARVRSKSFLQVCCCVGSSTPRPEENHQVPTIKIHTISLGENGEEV

[3] = biological target: T2, 5-hydroxytryptamine receptor 1A (Mus musculus, UniProt Q64264); experiment: Binding affinity towards 5-HT1A receptor
T2 sequence (Q64264 whole entry): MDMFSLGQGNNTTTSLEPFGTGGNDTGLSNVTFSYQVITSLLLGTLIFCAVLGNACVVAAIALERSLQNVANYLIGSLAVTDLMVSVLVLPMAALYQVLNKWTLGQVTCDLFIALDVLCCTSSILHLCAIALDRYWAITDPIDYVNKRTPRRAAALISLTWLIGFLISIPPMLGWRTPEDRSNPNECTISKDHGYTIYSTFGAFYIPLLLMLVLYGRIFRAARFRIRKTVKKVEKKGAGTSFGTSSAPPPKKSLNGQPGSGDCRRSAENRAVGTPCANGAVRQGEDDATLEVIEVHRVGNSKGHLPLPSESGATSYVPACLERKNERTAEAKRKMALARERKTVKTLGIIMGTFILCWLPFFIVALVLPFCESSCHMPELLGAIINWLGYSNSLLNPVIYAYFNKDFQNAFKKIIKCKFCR

Chain of D(2) dopamine receptor (P61168 whole entry): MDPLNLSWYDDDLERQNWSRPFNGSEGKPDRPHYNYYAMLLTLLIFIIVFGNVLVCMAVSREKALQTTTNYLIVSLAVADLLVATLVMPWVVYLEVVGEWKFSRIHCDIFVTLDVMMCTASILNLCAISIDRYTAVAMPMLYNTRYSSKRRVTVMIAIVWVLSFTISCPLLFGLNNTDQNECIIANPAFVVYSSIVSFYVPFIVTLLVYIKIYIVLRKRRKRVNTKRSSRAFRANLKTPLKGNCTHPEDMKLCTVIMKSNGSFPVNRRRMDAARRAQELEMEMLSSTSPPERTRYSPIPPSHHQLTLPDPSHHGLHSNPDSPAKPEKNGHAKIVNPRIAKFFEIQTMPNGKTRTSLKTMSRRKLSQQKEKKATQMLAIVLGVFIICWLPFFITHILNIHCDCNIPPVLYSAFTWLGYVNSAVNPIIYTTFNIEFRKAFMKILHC

CCS(=O)(=O)Nc1cccc(N2CCN(CCCCN3C(=O)C4CCCN4C3=O)CC2)c1 (stereo not drawn)
Ki [1]: 22 nM | Ki [2]: > 1000 nM | Ki [3]: 27 nM
